[invAb] = inverted abasic unit; d = 2'-deoxy (DNA); m = 2'-O-methyl; r = 2'-OH (RNA); f = 2'-fluoro
System: ENaCα mRNA
Assay: Screening of ENaCα siNAs in human A549 cells (quantitative RT-PCR)
Assay type: cell-based
Set-up: Percent Reduction of the ENaCα mRNA relative to a non-targeting control siNA (NTC): concentration or dose not given beside the values
Details: human A549 cells, n = 3; for Avg ENaCα Expression: 25 nM siNA with Lipofectamine 2000, harvested 24 hours post-transfection; for Mean (level of ENaCα expression normalized to the level of GAPDH) / Percent Reduction of the ENaCα mRNA relative to a non-targeting control siNA (NTC) / Avg GAPDH Expression: 24 hours post-transfection; for Avg GAPDH Expression: housekeeping gene used for normalisation
Protocol: siNA constructs (Table 1b) may be tested for efficacy in reducing ENaC RNA expression in, for example, A549 human lung carcinoma cells. A549 (human; ATCC cat# CCL-185) cells were cultured at 37° C. in the presence of 5% CO2 and grown in Ham's F12K medium with 2 mM L-glutamine adjusted to contain 1.5 g/L sodium bicarbonate and supplemented with fetal bovine serum at a final concentration of 10% and 100 U/mL penicillin. The A549 cells were plated approximately 24 hours before transfection in 96-well plates at 7,500 cells/well, 100 μl/well. After 24 hours complexes containing siNA and Lipofectamine 2000 (Invitrogen) were created as follows: a solution of Lipofectamine 2000 in OPTI-MEM was prepared containing Lipofectamine 2000 at a final concentration of 14 μg/ml. In parallel, solutions of the siNAs were prepared in OPTI-MEM at a final concentration of 150 nM. After both solutions were incubated at 20° C. for 20 minutes an equal volume of the siNA solutions and the Lipofectamine 2000 solution were added together for each of the siNAs. The resultant solution has the siNAs at a final concentration of 75 nM and Lipofectamine 2000 at a final concentration of 7 μg/ml. This solution was incubated at 20° C. for 20 minutes. After incubation 50 μl of the solution were added to each of the wells (in triplicate). The final concentration of siNA in each well was 25 nM and the final concentration of Lipofectamine 2000 in each well was 2.33 μg/ml. […] Dose response curves were determined in a similar manner with each concentration being done in triplicate and maintaining a constant amount of Lipofectamine 2000 in each transfection.
RNA was extracted from 96-well plates using the Invitek Invisorb RNA Cell HTS 96 Kit/C (Cat# 70619000) with a slightly modified protocol. The details of the protocol for isolating RNA from each plate are described as follows:
1) Aspirate media with rake 2) Add 150 ul/well Lysis buffer 3) Place on plate shaker for 1 minute 4) Place DNA binding plate on top of 0.5 ml collection plate 5) Pipette 190 ul up and down twice and add to DNA binding plate 6) Cover plate 7) Centrifuge plates 4 minutes at 4000 RPM 8) Discard DNA binding plate 9) Place the RNA binding plate on top of 2 ml collection plate 10) Add 150 ul/well of Binding Buffer R to 0.5 ml collection plate 11) Move contents of 0.5 ml collection plate to RNA binding plate 12) Let incubate for 1 minute 13) Centrifuge plates 4 minutes at 4000 RPM 14) Add 600 ul/well of Wash Buffer R1 to RNA binding plate 15) Centrifuge plates 4 minutes at 4000 RPM 16) Dump wash buffer from 2 ml collection plate 17) Add 400 ul/well of Wash Buffer R2 to RNA binding plate 18) Centrifuge plates 4 minutes at 4000 RPM 19) Add 400 ul/well of Wash Buffer R2 to RNA binding plate 20) Centrifuge plates 10 minutes at 4000 RPM 21) Dump wash buffer from 2 ml collection plate 22) Centrifuge plates 3 minutes at 4000 RPM 23) Discard 2 ml collection plate and place RNA binding plate on to microtiter plate 24) Add 100 ul/well of elution buffer to RNA binding plate 25) Incubate for 2 minutes 26) Seal plate 27) Centrifuge plates 3 minutes at 4000 RPM 28) Discard RNA binding plate 29) Cover microtiter plate for storage in −80 freezer
A series of probes and primers were used to detect the various mRNA transcripts of the genes of ENaCa and GAPDH in mouse, rat, and human cell lines. The assays were performed on an ABI 7500 instrument, according to the manufacturer's instructions. Within each experiment, the baseline was set in the exponential phase of the amplification curve, and based on the intersection point of the baselines with the amplification curve, a Ct value was assigned by the instrument. This Ct value was then assigned a QTY value based on the Standard Curve. The standard curve in the various experiments herein used 1 ng to 300 ng of RNA extracted from the same cell line used for the experimental transfections. […]

Substance | Avg ENaCα Expression | Mean (level of ENaCα expression normalized to the level of GAPDH) | Percent Reduction of the ENaCα mRNA relative to a non-targeting control siNA (NTC) [%] | Avg GAPDH Expression
B AAccGCAuGAAGAcGGccu TTB / AGGccGucuucAuGcGGuuUU (chain 1 AACCGCAUGAAGACGGCCUTT; chain 2 AGGCCGUCUUCAUGCGGUUUU; siRNA; chain 1: sugars from the 5' end ddffdddfdddddfddfffdd, [invAb] at 5' end, 3' end, backbone not given here; chain 2: sugars from the 5' end rrrffmfffffmfmfmmffmm, backbone not given here) [Site 337] | 67.27 | 1.48 | 5.0 | 49.84
B AAccuGGGcAGccAGuGGA TTB / UCCAcuGGcuGcccAGGuuUU (sense AACCUGGGCAGCCAGUGGATT; antisense UCCACUGGCUGCCCAGGUUUU; siRNA; sense: sugars from the 5' end ddfffdddfddffddfddrdd, [invAb] at 5' end, 3' end, backbone not given here; antisense: sugars from the 5' end rrrmffmmffmfffmmmffmm, backbone not given here) [Site 1747] | 75.36 | 0.58 | 12.3 | 130.33
B AGccAGuGGAGccuGuGGu TTB / ACCAcAGGcuccAcuGGcuUU (sense AGCCAGUGGAGCCUGUGGUTT; antisense ACCACAGGCUCCACUGGCUUU; siRNA; sense: DNA at AGT, 2'-fluoro at CU, [invAb] at 5' end, 3' end, backbone not given here; antisense: sugars from the 5' end rrrmfmmmffffmffmmffmm, backbone not given here) [Site 1756] | 73.20 | 0.71 | −8.2 | 102.64
B AGuGuGGcuGuGccuAcAu TTB / AUGuAGGcAcAGccAcAcuUU (sense AGUGUGGCUGUGCCUACAUTT; antisense AUGUAGGCACAGCCACACUUU; siRNA; sense: DNA at AGT, 2'-fluoro at CU, [invAb] at 5' end, 3' end, backbone not given here; antisense: sugars from the 5' end rrrfmmmfmfmmffmfmffmm, backbone not given here) [Site 1382] | 72.49 | 1.30 | 16.6 | 57.29
B AccGcAuGAAGAcGGccuu TTB / AAGGccGucuucAuGcGGuUU (chain 1 ACCGCAUGAAGACGGCCUUTT; chain 2 AAGGCCGUCUUCAUGCGGUUU; siRNA; chain 1: DNA at AGT, 2'-fluoro at CU, [invAb] at 5' end, 3' end, backbone not given here; chain 2: sugars from the 5' end rrrmffmfffffmfmfmmfmm, backbone not given here) [Site 338] | 65.83 | 0.90 | 42.2 | 76.32
B AccuGGGcAGccAGuGGAG TTB / CUCcAcuGGcuGcccAGGuUU (sense ACCUGGGCAGCCAGUGGAGTT; antisense CUCCACUGGCUGCCCAGGUUU; siRNA; sense: DNA at AGT, 2'-fluoro at CU, [invAb] at 5' end, 3' end, backbone not given here; antisense: sugars from the 5' end rrrfmffmmffmfffmmmfmm, backbone not given here) [Site 1748] | 80.25 | 0.61 | 7.2 | 131.14
B GGGcAGccAGuGGAGccuG TTB / CAGGcuccAcuGGcuGcccUU (sense GGGCAGCCAGUGGAGCCUGTT; antisense CAGGCUCCACUGGCUGCCCUU; siRNA; sense: DNA at AGT, 2'-fluoro at CU, [invAb] at 5' end, 3' end, backbone not given here; antisense: sugars from the 5' end rrrmffffmffmmffmfffmm, backbone not given here) [Site 1752] | 82.06 | 0.60 | 9.4 | 137.51
B GGcAGccAGuGGAGccuGu TTB / ACAGGcuccAcuGGcuGccUU (sense GGCAGCCAGUGGAGCCUGUTT; antisense ACAGGCUCCACUGGCUGCCUU; siRNA; sense: DNA at AGT, 2'-fluoro at CU, [invAb] at 5' end, 3' end, backbone not given here; antisense: sugars from the 5' end rrrmmffffmffmmffmffmm, backbone not given here) [Site 1753] | 84.05 | 0.66 | 0.6 | 128.19
B GGcuGuGccuAcAucuucu TTB / AGAAGAuGucGGcAcAGccUU (sense GGCUGUGCCUACAUCUUCUTT; antisense AGAAGAUGUCGGCACAGCCUU; siRNA; sense: DNA at AGT, 2'-fluoro at CU, [invAb] at 5' end, 3' end, backbone not given here; antisense: sugars from the 5' end rrrmmmfmffmmfmfmmffmm, backbone not given here) [Site 1387] | 46.10 | 0.43 | 34.2 | 106.19
B GcAuGAAGAcGGccuucuG TTB / CAGAAGGccGuCuucAuGcUU (chain 1 GCAUGAAGACGGCCUUCUGTT; chain 2 CAGAAGGCCGUCUUCAUGCUU; siRNA; chain 1: DNA at AGT, 2'-fluoro at CU, [invAb] at 5' end, 3' end, backbone not given here; chain 2: sugars from the 5' end rrrmmmmffmfmfffmfmfmm, backbone not given here) [Site 341] | 62.42 | 1.62 | −4.3 | 48.12
B GccAGuGGAGccuGuGGuu TTB / AACcAcAGGcuccAcuGGcUU (sense GCCAGUGGAGCCUGUGGUUTT; antisense AACCACAGGCUCCACUGGCUU; siRNA; sense: DNA at AGT, 2'-fluoro at CU, [invAb] at 5' end, 3' end, backbone not given here; antisense: sugars from the 5' end rrrfmfmmmffffmffmmfmm, backbone not given here) [Site 1757] | 66.53 | 0.66 | 0.0 | 101.11

Source: US20110288154A1, “RNA Interference Mediated Inhibition of Epithelial Sodium Channel (ENaC) Gene Expression Using Short Interfering Nucleic Acid (siNA)” (MERCK & CO., INC., priority 2008, published 2011)
